From article PMC12473906, “Comparing the Altis RepliGut Organoid System to MDCK Monolayers in Predicting the Oral Absorption of Lenalidomide” (Pharmaceutics, 2025)
Read-outs that look alike come from different tables or passages of the source.

Legend:
gMDCK monolayers = conditions: MDCK
[1] = system: human intestinal organoid-derived monolayer (RepliGut)
in vitro [2] = conditions: dog, MDCK, pH 7.4, gMDCK Papp
in vitro [3] = conditions: human, pH 7.4
[4] = ref PubChem; cited from earlier work
[5] = cited from earlier work; for Main Route of Absorption: as listed in Table 2, no reference given
[6] = gMDCK (P-gp knockout MDCK) monolayer permeability assay; conditions: dog, MDCK, pH 7.4, gMDCK Papp, reference compounds; apical to basolateral; n=3 biological replicates
[7] = RepliGut human jejunal organoid-derived monolayer permeability assay; conditions: human, pH 7.4
[8] = system: human intestinal organoid-derived monolayer (RepliGut); test: as above; conditions: organoid vs gMDCK

| basolateral to apical permeability in intestinal organoids compared with gMDCK cells [1] | Efflux Substrate [1] | Papp at 3 h [7] [×10⁻⁶ cm/s] | apical to basolateral apparent permeability in intestinal organoids compared with gMDCK monolayers [8] | basolateral to apical permeability in intestinal organoids compared with gMDCK cells [8] | Compound | LogP [4] | Main Route of Absorption [5] | Human Fa (fraction absorbed) [5] | further results |
| --- | --- | --- | --- | --- | --- | --- | --- | --- | --- |
| similar |  |  |  |  | Lucifer yellow |  |  |  | effect of shaking gMDCK cells during the permeability assay on permeability (gMDCK monolayers): did not significantly change; apical to basolateral apparent permeability in intestinal organoids compared with gMDCK monolayers [1]: higher |
| similar | No |  |  |  | COCCc1ccc(OCC(O)CNC(C)C)cc1 (stereo not drawn) [Metoprolol] |  |  |  | Papp at 3 h (in vitro [2]): 13 ×10⁻⁶ cm/s; Papp at 3 h (in vitro [3]): 10.1 ×10⁻⁶ cm/s |
|  | Yes |  |  |  | CC(C)CN(C[C@@H](O)[C@H](Cc1ccccc1)NC(=O)O[C@H]1CCOC1)S(=O)(=O)c1ccc(N)cc1 [Amprenavir] | 2.2 | Transcellular |  |  |
|  | Yes | 0.17 | higher | significantly higher | CC(C)(C)NCC(O)COc1cccc2c1CC(O)C(O)C2 (stereo not drawn) [Nadolol] |  | Paracellular | 57% [9] | efflux ratio at 3 h (in vitro [3]): > 4; Papp at 3 h [6]: 0.09 ×10⁻⁶ cm/s |
|  |  | 0.85 | significantly lower | significantly higher | CC(CCc1ccccc1)NCC(O)c1ccc(O)c(C(N)=O)c1 (stereo not drawn) [Labetalol] | 1.8 | Both | 95% [9] |  |
